The test system of the first experiment is HT-1080 cells. The experiment is described as follows: HT-1080 cell viability assay (ferroptosis induced by RSL3, Cell Titer-Glo). It counts as cell-based. The note with it: Homo sapiens, HT-1080, 20 h, ferroptosis inducer RSL3, 20 hours, ferroptosis inhibitory activity, Table 2. Summed up:
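Cells seeded overnight, then co-treated with RSL3 and compound (3-fold, 10-point dilution, top 1.1 μM) for 20 hours. Viability by CellTiter-Glo luminescence, normalized to untreated controls; EC50 from sigmoidal non-linear regression.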
(ATP-based viability assays read luminescence as a measure of living cells.)
For orientation: EC50 means the midpoint of the concentration-response curve. The low end stands for an effect from little substance, the high end for a need for much substance. For the molecule `CC1CC(C)CN(c2ncc(NC3CC4(CC(NC(=O)C(N)=O)C4)C3)cn2)C1` (stereo not drawn) [Compound 425, N1-(6-((2-(3,5-dimethylpiperidin-1-yl)pyrimidin-5-yl)amino)spiro[3.3]heptan-2-yl)oxalamide], the EC50 was 0.1 to 100 nM.

Turning to `NC1CCC(Nc2cnc(N3CCC(C(F)(F)F)CC3)cn2)CC1` (stereo not drawn) [Compound 52, N1-(5-(4-(trifluoromethyl)piperidin-1-yl)pyrazin-2-yl)cyclohexane-1,4-diamine], the concentration for a half-maximal effect (EC50) was in the range of 0.1 to 100 nM.

With `CC1(C)CCN(c2ncc(NC3C4CC5CC3CC(C(N)=O)(C5)C4)cn2)CC1` (stereo not drawn) [Compound 410, 4-((2-(4,4-dimethylpiperidin-1-yl)pyrimidin-5-yl)amino)adamantane-1-carboxamide], the EC50 was 0.1 to 100 nM.

For the molecule `NC1CCC(Nc2cccc3c2CCC3)CC1` (single isomer, unassigned) [Compound 191A, N1-(2,3-dihydro-1H-inden-4-yl)cyclohexane-1,4-diamine], the half-maximal effective concentration (EC50) lay in the range of 1000 to 10000 nM.

Take `CC(C)(C)c1ccc(NC2CCC(C[N+](C)(C)C)CC2)cc1` (stereo not drawn) [Compound 258, 1-(4-((4-(tert-butyl)phenyl)amino)cyclohexyl)-N,N,N-trimethylmethanaminium]: the EC50 lay within 1000 to 10000 nM.

`Cc1nc(N2C[C@H](C)O[C@@H](C)C2)ccc1NC1CC2(CC(N)C2)C1` (stereo partly drawn) [Compound 479, N2-(6-((2S,6S)-2,6-dimethylmorpholino)-2-methylpyridin-3-yl)spiro[3.3]heptane-2,6-diamine] registered an EC50 of 0.1 to 100 nM.

The molecule `CC1(C)CCC(c2ccc(NCCCN3CCCC3)cc2)CC1` [Compound 171, 4-(4,4-dimethylcyclohexyl)-N-(3-(pyrrolidin-1-yl)propyl)aniline] had an EC50 of 0.1 to 100 nM.

`CCC1CCN(c2ccc(NC3CCC(N)CC3)c(C)c2)CC1` (stereo not drawn) [Compound 390, N1-(4-(4-ethylpiperidin-1-yl)-2-methylphenyl)cyclohexane-1,4-diamine] came in with an EC50 of 0.1 to 100 nM.

As to `CCCc1ccc(NC2CCC(CN)CC2)cc1` (stereo not drawn) [Compound 291, N-(4-(aminomethyl)cyclohexyl)-4-propylaniline], the EC50 lay in the range of 0.1 to 100 nM.

Molecule `NC1CCC(Nc2cc(F)c(N3CCC(C(F)(F)F)CC3)c(F)c2)CC1` (stereo not drawn) [Compound 54A, N1-(3,5-difluoro-4-(4-(trifluoromethyl)piperidin-1-yl)phenyl)cyclohexane-1,4-diamine] returned an EC50 of 0.1 to 100 nM.

Consider `NCCC1CCC(Nc2ccc3c(c2)CCC3)CC1` (stereo not drawn) [Compound 264, N-(4-(2-aminoethyl)cyclohexyl)-2,3-dihydro-1H-inden-5-amine], for which the EC50 was in the range of 0.1 to 100 nM.

Turning to `CCOCCCc1ccc(NC2CCC(N)CC2)cc1` (stereo not drawn) [Compound 262, (1s,4s)-N1-(4-(3-ethoxypropyl)phenyl)cyclohexane-1,4-diamine], the EC50 fell in the range of 100 to 1000 nM.

`CC1(CN)CCC(Nc2ccc(C(C)(C)C)cc2)CC1` (stereo not drawn) [Compound 339, N-(4-(aminomethyl)-4-methylcyclohexyl)-4-(tert-butyl)aniline] showed a half-maximal effective concentration (EC50) of 0.1 to 100 nM.

Turning to `COCCOc1cc(NC2CCC(N)CC2)ccc1C(C)(C)C` (stereo not drawn) [Compound 301A, N1-(4-(tert-butyl)-3-(2-methoxyethoxy)phenyl)cyclohexane-1,4-diamine], the concentration for a half-maximal effect (EC50) was in the range of 0.1 to 100 nM.

As to `CC(C)(C)c1ccc(NC2CCC(CCN)CC2)cc1` (single isomer, unassigned) [Compound 200A, N-(4-(2-aminoethyl)cyclohexyl)-4-(tert-butyl)aniline], the concentration giving a half-maximal response (EC50) fell in the range of 0.1 to 100 nM.

`Cc1nc(NCC(F)(F)F)ccc1NC1CC2(CC(N)C2)C1` (stereo not drawn) [Compound 557, N3-(6-aminospiro [3.3]heptan-2-yl)-6-methyl-N2-(2,2,2-trifluoroethyl)pyridine-2,5-diamine] came in with an EC50 of 0.1 to 100 nM.

For `CCN(CC)c1ccc(NC[C@H]2CC[C@H](N)CC2)cc1` [Compound 436], the EC50 was 0.1 to 100 nM.

In the case of `CC1(C)CCC(c2ccc(NC3CCC(O)CC3)cc2)CC1` (single isomer, unassigned) [Compound 205A, 4-((4-(4,4-dimethylcyclohexyl)phenyl)amino)cyclohexan-1-ol], the EC50 fell in the range of 0.1 to 100 nM.

Take `Cc1cc(N2CCC(C)(C)CC2)ccc1NC[C@H]1CC[C@H](N)CC1` [Compound 382, N-(((1r,4r)-4-aminocyclohexyl)methyl)-4-(4,4-dimethylpiperidin-1-yl)-2-methylaniline]: the 50% effective concentration (EC50) lay in the range of 0.1 to 100 nM.

For the molecule `CC(C)(C)c1ccc(NC2CCC(N)CC2)cc1C#N` (stereo not drawn) [Compound 218, 5-((4-aminocyclohexyl)amino)-2-(tert-butyl)benzonitrile], the EC50 was in the range of 100 to 1000 nM.

`CN1CCC(Nc2ccc(N3CCC(C(F)(F)F)CC3)cc2)CC1=O` (stereo not drawn) [Compound 27, 1-methyl-4-((4-(4-(trifluoromethyl)piperidin-1-yl)phenyl)amino)piperidin-2-one] displayed an EC50 of 100 to 1000 nM.

For the molecule `Cc1cc(N2C[C@@H](C)O[C@@H](C)C2)ncc1NC1CC2(CC(N)C2)C1` (stereo partly drawn) [Compound 487, N2-(6-((2S,6R)-2,6-dimethylmorpholino)-4-methylpyridin-3-yl)spiro[3.3]heptane-2,6-diamine], the EC50 is 100 to 1000 nM.

`COc1cc(N2CC(C)OC(C)C2)ccc1NC[C@H]1CC[C@H](N)CC1` (stereo partly drawn) [Compound 497, N-(((1r,4r)-4-aminocyclohexyl)methyl)-4-(2,6-dimethylmorpholino)-2-methoxyaniline] registered an EC50 of 0.1 to 100 nM.

`Cc1nc(N2CC(C)OC(C)C2)ccc1NCC12CC3CC(C1)C(N)C(C3)C2` (stereo not drawn) [Compound 516A, N-(((1s,4r)-4-aminoadamantan-1-yl)methyl)-6-(2,6-dimethylmorpholino)-2-methylpyridin-3-amine]: the EC50 was 0.1 to 100 nM.

For the molecule `NC1CCC(Nc2ccc3cc(N4CCC(C(F)(F)F)CC4)cnc3c2)CC1` (stereo not drawn) [Compound 572, N1-(3-(4-(trifluoromethyl)piperidin-1-yl)quinolin-7-yl)cyclohexane-1,4-diamine], the EC50 lay within 0.1 to 100 nM.

On to `Cc1cc(NC2CCCCC2C(N)=O)ccc1N1CCC(C)CC1` (stereo not drawn) [Compound 492, 2-((3-methyl-4-(4-methylpiperidin-1-yl)phenyl)amino)cyclohexane-1-carboxamide], for which the EC50 was in the range of 0.1 to 100 nM.

Molecule `CC1(C)CCC(c2ccc(NC3CCC(NC(=O)C4CNCCN4)CC3)cc2)CC1` (stereo not drawn) [Compound 274, N-(4-((4-(4,4-dimethylcyclohexyl)phenyl)amino)cyclohexyl) piperazine-2-carboxamide] came in with a concentration giving a half-maximal response (EC50) of 0.1 to 100 nM.

In the case of `Cc1nc(N2CCC3(CC2)COC3)ccc1NC1CC2(CC(N)C2)C1` (stereo not drawn) [Compound 530, 2-N-(2-methyl-6-{2-oxa-7-azaspiro[3.5]nonan-7-yl}pyridin-3-yl)spiro[3.3]heptane-2,6-diamine], the EC50 was 1000 to 10000 nM.

Take `Cc1c(NC[C@H]2CC[C@H](N)CC2)ccc(N2CC(C)OC(C)C2)c1F` (stereo partly drawn) [Compound 433, N-(((1r,4r)-4-aminocyclohexyl)methyl)-4-(2,6-dimethylmorpholino)-3-fluoro-2-methylaniline]: the 50% effective concentration (EC50) lay in the range of 0.1 to 100 nM.

`CC1CN(c2ccc(NC[C@H]3CC[C@H](N)CC3)cc2Cl)CC(C)O1` (stereo partly drawn) [Compound 438, N-(((1r,4r)-4-aminocyclohexyl)methyl)-3-chloro-4-(2,6-dimethylmorpholino)aniline] registered an EC50 of 0.1 to 100 nM.

Turning to `COCCOCCNc1ccc(C2CCC(C)(C)CC2)cc1` [Compound 79, 4-(4,4-dimethylcyclohexyl)-N-(2-(2-methoxyethoxy)ethyl)aniline], the EC50 lay within 100 to 1000 nM.

On to `NCC1CCC(Nc2ccc(C(F)(F)F)cc2)CC1` (stereo not drawn) [Compound 88, N-(4-(aminomethyl)cyclohexyl)-4-(trifluoromethyl)aniline], for which the EC50 lay in the range of 1000 to 10000 nM.

In turn, `N[C@H]1CC[C@H](CNc2ccc3c(c2)CCCC3)CC1` [Compound 310, N-(((1r,4r)-4-aminocyclohexyl)methyl)-5,6,7,8-tetrahydronaphthalen-2-amine] came in with an EC50 of 0.1 to 100 nM.

The molecule `Cc1cc(C(C)(C)C)ccc1NC1CCC(N)CC1` (stereo not drawn) [Compound 184, N1-(4-(tert-butyl)-2-methylphenyl)cyclohexane-1,4-diamine] had an EC50 of 100 to 1000 nM.

As for `CC(N)C1CCC(Nc2ccc(C3CCC(C)(C)CC3)cc2)CC1` (stereo not drawn) [Compound 140, N-(4-(1-aminoethyl)cyclohexyl)-4-(4,4-dimethylcyclohexyl)aniline], the 50% effective concentration (EC50) was in the range of 0.1 to 100 nM.

Turning to `COC(C)(C)C1CCN(c2ccc(NC3CC4(CC(N)C4)C3)c(C)n2)CC1` (stereo not drawn) [Compound 529, N2-(6-(4-(2-methoxypropan-2-yl)piperidin-1-yl)-2-methylpyridin-3-yl)spiro[3.3]-heptane-2,6-diamine], the concentration for a half-maximal effect (EC50) was 0.1 to 100 nM.

The same experiment, now with this note: Homo sapiens, HT-1080, 20 h, ferroptosis inducer RSL3, 20 hours, ferroptosis inhibitory activity, Table 3.
`CC[C@@H]1CN(c2ccc(N[C@H]3C[C@@H](N)C3)c(C)n2)C[C@H](C)O1` [Compound 618, (1s,3S)-N1-(6-((2R,6S)-2-ethyl-6-methylmorpholino)-2-methylpyridin-3-yl)cyclobutane-1,3-diamine] registered an EC50 of 100 to 1000 nM.

Molecule `C[C@@H]1CN(c2ccc3cc(NCC[C@H]4C[C@H](N)C4)ccc3c2)C[C@H](C)O1` [Compound 583, N-(2-((1r,3S)-3-aminocyclobutyl)ethyl)-6-((2S,6R)-2,6-dimethylmorpholino) naphthalen-2-amine] displayed an EC50 of 0.1 to 100 nM.

Regarding `Cc1nc(N2CCC3(CCCOC3)CC2)ccc1NC[C@H]1CC[C@H](N)CC1` [Compound 581, N-(((1r,4r)-4-aminocyclohexyl)methyl)-2-methyl-6-(2-oxa-9-azaspiro [5.5]undecan-9-yl)pyridin-3-amine], the EC50 is 0.1 to 100 nM.

The same experiment, now with this note: ferroptosis inducer RSL3, 20 hours, ferroptosis inhibitory activity, Table 2.
`NC1CCC(Nc2ccc(C3CCCCC3)cc2)CC1` (stereo not drawn) [Compound 133, N1-(4-cyclohexylphenyl)cyclohexane-1,4-diamine] came in with an EC50 of 0.1 to 100 nM.

`CCC(C)c1ccc(NC2CCC(N)CC2)cc1` (single isomer, unassigned) [Compound 289B, 1-N-(4-(sec-butyl)phenyl)cyclohexane-1,4-diamine]: the EC50 is 100 to 1000 nM.

As to `CC1CN(c2ccc(NC3CC4(CC(N)C4)C3)cc2F)CC(C)N1CC(F)(F)F` (stereo not drawn) [Compound 535], the EC50 was 0.1 to 100 nM.
